Where “and” joins values, the source holds several entries; their conditions need not be identical. Equal values may be shown once. ± gives the expanded uncertainty stated by the source. One block for each molecule: values may come before it.
Settings: Liquid

SMILES: C=CCC [1-butene]
vapor or sublimation pressure (364.51 K): 1510.5 ± 10 kPa

SMILES: C/C=C\C [(Z)-2-butene]
vapor or sublimation pressure (365.43 K): 1213 ± 8.5 kPa

SMILES: CCCC [butane]
vapor or sublimation pressure (364.51 K): 1284.5 ± 8.9 kPa

SMILES: CC(C)=O [acetone]
vapor or sublimation pressure (364.51 K): 297.1 ± 2.1 kPa and 294.3 ± 2.1 kPa and 296.4 ± 2.1 kPa | vapor or sublimation pressure (364.52 K): 296.8 ± 2.1 kPa | vapor or sublimation pressure (365.43 K): 302.56 ± 2.1 kPa

Continued, values first:

vapor or sublimation pressure (364.5 K): 1685.6 ± 12 kPa
SMILES: CC(C)C [2-methylpropane]

vapor or sublimation pressure (364.51 K): 1546.2 ± 11 kPa
SMILES: C=C(C)C [2-methylpropene]

vapor or sublimation pressure (364.5 K): 1269.2 ± 8.9 kPa
SMILES: C/C=C/C [(E)-2-butene]

From the NIST ThermoML archive (doi:10.1021/je050403k)
